Test results: patent publication US4843087A (priority 1986, dated 1989)
≈ marks a conversion by molar mass, not a printed value. Where two headings read alike, the source gives them in different places.

Legend:
[1] = system: human rhinovirus (HRV) serotypes; assay: microbe, parasite or virus in culture; type: cell-based; conditions: for MIC50: read-out: Rhinovirus MIC50
[2] = blood plasma concentration in dogs after oral administration; type: in vivo; conditions: dog, beagle dogs, fasted, oral 25 mg/kg in corn oil, up to six hours
Procedure: The blood plasma concentrations of the compounds of the invention were measured in beagle dogs by the following procedure: Animals ranging in weight from 8.5 to 11.5 kg were fasted overnight prior to oral administration of 25 mg/kg of the test compound dissolved in corn oil (125 mg/ml) and contained in gelatin capsules. Blood samples were collected at selected time intervals up to six hours post-medication and analyzed by standard chromatographic procedures to determine the mean maximum concentration of the test compound in micrograms per milliliter [Mean Cmax, μg/ml].

[3] = system: poliovirus, type 2, MEF strain; assay: animal or person; type: in vivo, white Swiss mice; conditions: Enterovirus C, in Mus musculus, po, 336 h, read-out: Survivors Day 14 Post Infection
Polio 2 = assay: microbe, parasite or virus in culture; type: cell-based, poliovirus; conditions: Enterovirus C, HeLa, read-out: Polio 2 MIC
echovirus-9 = assay: in vivo efficacy in echovirus-9 mouse infection model
coxsackie virus A-9 = assay: in vivo efficacy in coxsackie virus A-9 mouse infection model
enteroviruses = assay: microbe, parasite or virus in culture; type: cell-based; conditions: Enterovirus, read-out: MIC80

Cc1cc(CCCCCOc2c(Cl)cc(-c3nc(C)c(C)o3)cc2Cl)on1 [119(c), 5-{5-[2,6-Dichloro-4-(4,5-dimethyl-2-oxazolyl)phenoxy]pentyl}-3-methylisoxazole]
MIC50 [1]: 0.32 µg/mL (≈ 0.782 µM) | IC (MIC80 of serotype panel) ([1]; read-out: Rhinovirus MIC80): 0.53 µg/mL | Cmax [2]: 2130 ± 480 ng/mL

Cc1cc(CCCCCCCOc2ccc(C3=NCCO3)cc2Cl)on1 [13(c), 5-{7-[2-Chloro-4-(4,5-dihydro-2-oxazolyl)phenoxy]heptyl}-3-methylisoxazole]
MIC50 [1]: 0.34 µg/mL (≈ 0.902 µM) | IC (MIC80 of serotype panel) ([1]; read-out: Rhinovirus MIC80): 1.06 µg/mL | responders at 25 mg/kg [3]: 20% | responders at 50 mg/kg [3]: 61.1% | responders at 100 mg/kg [3]: 80% | MIC (Polio 2): 0.17 µg/mL (≈ 0.451 µM)

Cc1cc(CCCCCCOc2c(Cl)cc(C3=NCCO3)cc2Cl)on1 [Example 106, 5-{6-[2,6-Dichloro-4-(4,5-dihydro-2-oxazolyl)phenoxy]hexyl}-3-methylisoxazole]
MIC50 [1]: 0.18 µg/mL (≈ 0.453 µM) | IC (MIC80 of serotype panel) ([1]; read-out: Rhinovirus MIC80): 0.41 µg/mL | Cmax [2]: 1530 ± 150 ng/mL | MIC (Polio 2): 0.58 µg/mL (≈ 1.46 µM)

Cc1cc(CCCCCOc2ccc(C3=NCCO3)cc2Cl)on1 [15(b), 5-{5-[2-Chloro-4-(4,5-dihydro-2-oxazolyl)phenoxy]pentyl}-3-methylisoxazole]
MIC50 [1]: 0.08 µg/mL (≈ 0.229 µM) | IC (MIC80 of serotype panel) ([1]; read-out: Rhinovirus MIC80): 0.35 µg/mL | responders at 50 mg/kg [3]: 40% | responders at 100 mg/kg [3]: 60% | MIC (Polio 2): 0.12 µg/mL (≈ 0.344 µM)

Cc1cc(CCCCCOc2ccc(C3=NCCO3)cc2)no1 [7(k), 3-{5-[4-(4,5-Dihydro-2-oxazolyl)phenoxy]pentyl}-5-methylisoxazole]
MIC50 [1]: 1.3 µg/mL (≈ 4.14 µM) | IC (MIC80 of serotype panel) ([1]; read-out: Rhinovirus MIC80): 74.6 µg/mL | responders at 100 mg/kg [3]: 80% | MIC (Polio 2): 0.0012 µg/mL (≈ 0.00382 µM)

Cc1cc(CCCCCCCOc2ccc(C3=NCCO3)cc2)on1 [Example 1(c), 5-{7-[4-(4,5-Dihydro-2-oxazolyl)phenoxy]heptyl}-3-methylisoxazole]
MIC50 [1]: 1.7 µg/mL (≈ 4.96 µM) | IC (MIC80 of serotype panel) ([1]; read-out: Rhinovirus MIC80): 99 µg/mL | responders at 50 mg/kg [3]: 70% | responders at 100 mg/kg [3]: 90% | MIC (Polio 2): 0.04 µg/mL (≈ 0.117 µM)

Cc1cc(CCCCCCCOc2ccc(C3=NC(C)CO3)cc2)on1 (racemic) [Example 3, 5-{7-[4-(4,5-Dihydro-4-methyl-2-oxyazolyl)phenoxy]heptyl}-3-methylisoxazole]
MIC50 [1]: 0.07 µg/mL (≈ 0.196 µM) | IC (MIC80 of serotype panel) ([1]; read-out: Rhinovirus MIC80): 1.6 µg/mL | responders at 100 mg/kg [3]: 45% | responders at 200 mg/kg [3]: 60% | responders at 400 mg/kg [3]: 70% | MIC (Polio 2): 1.2 µg/mL (≈ 3.37 µM)

Cc1cc(CCCCCOc2c(C)cc(C3=NCCO3)cc2C)on1 [Example 58, 5-{5-[4-(4,5-Dihydro-2-oxazolyl)-2,6-dimethylphenoxy]pentyl}-3-methylisoxazole]
MIC50 [1]: 0.15 µg/mL (≈ 0.438 µM) | IC (MIC80 of serotype panel) ([1]; read-out: Rhinovirus MIC80): 0.43 µg/mL | Cmax [2]: 4260 ± 470 ng/mL | MIC (Polio 2): 3.1 µg/mL (≈ 9.05 µM)

Cc1cc(CCCCC(C)Oc2c(Cl)cc(C3=NCCO3)cc2Cl)on1 (centres unmarked) [Example 109, 5-{5-[2,6-Dichloro-4-(4,5-dihydro-2-oxazolyl)phenoxy]hexyl}-3-methylisoxazole]
MIC50 [1]: 0.16 µg/mL (≈ 0.403 µM) | IC (MIC80 of serotype panel) ([1]; read-out: Rhinovirus MIC80): 0.89 µg/mL | Cmax [2]: 2110 ± 610 ng/mL | MIC (Polio 2): 2.9 µg/mL (≈ 7.3 µM)

Cc1cc(CCCCCOc2ccc(C3=NCCO3)cc2)on1 [Example 2, 5-{5-[4-(4,5-Dihydro-2-oxazolyl)phenoxy]pentyl}-3-methylisoxazole]
MIC50 [1]: 0.38 µg/mL (≈ 1.21 µM) | IC (MIC80 of serotype panel) ([1]; read-out: Rhinovirus MIC80): 2.2 µg/mL | responders at 77 mg/kg [3]: 85% | MIC (Polio 2): 0.6 µg/mL (≈ 1.91 µM)

Cc1cc(CCCCCOc2c(Cl)cc(C3=NC(C)CO3)cc2Cl)on1 (centres unmarked) [Example 107, 5-{5-[2,6-Dichloro-4-(4,5-dihydro-4-methyl-2-oxazolyl)phenoxy]pentyl}-3-methylisoxazole]
MIC50 [1]: 0.12 µg/mL (≈ 0.302 µM) | IC (MIC80 of serotype panel) ([1]; read-out: Rhinovirus MIC80): 0.37 µg/mL | Cmax [2]: 1530 ± 140 ng/mL | MIC (Polio 2): 4.6 µg/mL (≈ 11.6 µM)

Cc1cc(CCCCCCCc2ccc(C3=NCCO3)cc2)on1 [6(g), 5-{7-[4-(4,5-Dihydro-2-oxazolyl)phenyl]heptyl}-3-methylisoxazole]
responders at 50 mg/kg [3]: 25% | responders at 100 mg/kg [3]: 85% | responders at 200 mg/kg [3]: 95% | MIC (Polio 2): 0.09 µg/mL (≈ 0.276 µM)

Cc1cc(CCCCCOc2c(Cl)cc(C3=NCCO3)cc2Cl)on1 [5-{5-[2,6-Dichloro-4-(4,5-dihydro-2-oxazolyl)phenoxyl]-pentyl}-3-methylisoxazole]
oral activity in echovirus-9 infections (echovirus-9): potent oral activity | IC (MIC80 of serotype panel) ([1]; read-out: MIC80): 0.23 µg/mL | MIC50 [1]: 0.07 µg/mL (≈ 0.183 µM) | IC (MIC80 of serotype panel) ([1]; read-out: Rhinovirus MIC80): 0.126 µg/mL | responders at 50 mg/kg [3]: 10% | responders at 100 mg/kg [3]: 25% | responders at 200 mg/kg [3]: 30% | ED50 (coxsackie virus A-9; Mus musculus, po, read-out: PD50): 2.5 mg/kg | oral activity in coxsackie virus A-9 infections (coxsackie virus A-9; mouse infection model, oral): potent oral activity | Cmax [2]: 1570 ± 350 ng/mL | MIC (Polio 2): 0.59 µg/mL (≈ 1.54 µM) | IC (MIC80 of serotype panel) (enteroviruses): 1.6 µg/mL

Cc1cc(CCCCCOc2ccc(C3=NCCO3)c(O)c2C)on1 [Example 80, 5-{5-[4-(4,5-Dihydro-2-oxazolyl)-3-hydroxy-2-methylphenoxy]pentyl}-3-methylisoxazole]
MIC50 [1]: 0.13 µg/mL (≈ 0.377 µM) | IC (MIC80 of serotype panel) ([1]; read-out: Rhinovirus MIC80): 0.27 µg/mL | MIC (Polio 2): 0.11 µg/mL (≈ 0.319 µM)
